In PMC8710804, “Stapled Anoplin as an Antibacterial Agent” (Frontiers in Microbiology, 2021):
“And” between values parts separate entries of the source, which are not always exact repeats. Equal values may be shown once. Where a SMILES comes first, the peptide text is derived from it. Bridges are numbered along the chain shown (N, C = ends). Where no end group is shown, it is not given here. [ ]: non-standard residue; d: D form. S5 = C=CCCC[C@](C)(N)C(=O)O

Key:
[1] = system: sheep red blood cells; test: Hemolysis assay; format: cell-based; conditions: sheep RBC in PBS pH 7.4, 37°C, 30 min, absorbance 405 nm, relative to 1% Triton-X-100, average of three independent measurements
Experimental: Sheep RBC (200 μl) were pelleted (3,500 rpm for 5 min), washed three times with PBS buffer (PBS 10 mM and 150 mM NaCl, pH 7.4). The cells were then diluted in PBS buffer (10 ml), divided into 50 parts into 1.5 ml tubes, and pelleted by centrifugation. Various concentrations of peptide solutions (200 μl) were added to the cells and incubated with shaking (165 rpm, 37°C) for 30 min. The cells were pelleted by centrifugation (3,500 rpm for 5 min). Then, 100 μl of supernatant from each tube was collected into a clear 96-well plate, and the absorbance of the released hemoglobin was measured with a plate reader spectrophotometer (Microplate Reader Biotek, Winooski, VT, United States) at 405 nm. Hemolysis was determined relative to the negative control (PBS) and the positive control (1% v/v Triton-X-100 that lyses 100% of RBC). The percentage of hemolysis was determined using the following equation:
where A0 is the absorbance intensity of the RBC in buffer (background), and A and A100 are the absorbance intensities of the RBS in the presence of peptides and Triton X-100, respectively.The tests were performed with duplicate samples, and the average values of three independent measurements were recorded.

[2] = system: HEK 293 cells; test: Cytotoxicity assay (MTT); format: cell-based, human; conditions: n = 3
Experimental: The HEK 293 cells were seeded at a density 2 × 10^4 per well on a 96-well plate and incubated in high glucose DMEM medium (Lonza) supplemented with 10% FBS and 50 U/ml of penicillin–streptomycin at 37°C in 5% CO2. After 24 h, cells were covered with a fresh medium containing tested peptides at different concentrations (4, 8, 16, and 32 μM). After 24 or 48 h of incubation, cells viability was tested using MTT [3-(4,5-dimethylthiazol-2-yl)-2,5-diphenyltetrazolium bromide] (Merck). Briefly, 10 μl of 5 mg/ml MTT was added to each well and incubated for 4 h. Formazan produced from MTT was solubilized during overnight incubation in 100 μl of 10% SDS in 0.01 M HCl. Absorbance at 590 nm was measured using Microplate Reader Biotek (Winooski, VT, United States). The experiment was performed in triplicates.

[3] = system: HEK 293 cells; test: DAPI staining, confocal microscopy of cell morphology; format: cell-based, human; conditions: HEK 293, 24 h, 64 μM of anoplin, 8–32 μM of derivatives (32 μM of anoplin[2-6]), confocal microscope
Experimental: 1 × 10^5 cells were seeded into coverslips and incubated for 24 h. The cells were then treated with anoplin (64 μM) or its derivatives (8–32 μM) for 24 h. Next, cells were washed with PBS and fixed in 4% PFA for 15 min at room temperature. After three washes with PBS, cells were stained with DAPI (4′,6-diamidino-2-phenylindole, dihydrochloride; Boster) for 5 min (as indicated in the instruction). Coverslips with cells were washed three times and mounted on a glass microscope slide using a Dako Fluorescence Mounting Medium. Images were acquired with Axio Imager Z2 LSM 700 Zeiss confocal microscope.

[4] = system: trypsin; test: Trypsin digestion assay; format: in vitro ADME; conditions: trypsin:peptide 1:1333, 0.1 M NH4HCO3 pH 8.0, 37°C, RP-HPLC peak area, performed thrice; for stability against trypsin (comparison in words): up to 8 min
Experimental: 250 μl of peptide solution in ammonium bicarbonate buffer (0.1 M NH4HCO3, pH 8.0) and an appropriate amount of trypsin (Sigma-Aldrich) solution in water were incubated at 37°C with rapid shaking (600 rpm). Trypsin and peptides were mixed in the ratio (1:1333; [Luong et al., 2017b]). After 2, 4, 6, and 8 min of incubation, 60 μl of digestion mixture was taken and treated with 60 μl of a solution of 50% acetonitrile containing 1% TFA to stop the digestion. Peptide degradation was analyzed with RP-HPLC using analytical methods to assess peptide purity (see subsection Synthesis of stapled anoplins). The results were calculated as the percentage of peptide peak of area degradation. The total area of every peak was designated for experiments without trypsin. Each of the experiments was performed thrice.

[5] = system: E. coli K12 MG1655; conditions: cation-adjusted MHB, ~5 × 10^5 CFU/ml, 37°C, 19 h + 1 h resazurin, OD600, at least three replicates for peptides, one for antibiotics
[6] = system: E. coli O157:H7; conditions: cation-adjusted MHB, ~5 × 10^5 CFU/ml, 37°C, 19 h + 1 h resazurin, OD600, at least three replicates for peptides, one for antibiotics
[7] = system: E. coli 1841/06 ESBL+; conditions: cation-adjusted MHB, ~5 × 10^5 CFU/ml, 37°C, 19 h + 1 h resazurin, OD600, at least three replicates for peptides, one for antibiotics
[8] = system: E. coli WR 3551/98 ESBL+; conditions: cation-adjusted MHB, ~5 × 10^5 CFU/ml, 37°C, 19 h + 1 h resazurin, OD600, at least three replicates for peptides, one for antibiotics
[9] = system: P. aeruginosa PAO1; conditions: cation-adjusted MHB, ~5 × 10^5 CFU/ml, 37°C, 19 h + 1 h resazurin, OD600, at least three replicates for peptides, one for antibiotics
[10] = system: P. aeruginosa ATCC 27853; conditions: cation-adjusted MHB, ~5 × 10^5 CFU/ml, 37°C, 19 h + 1 h resazurin, OD600, at least three replicates for peptides, one for antibiotics
[11] = system: S. typhimurium LT2; conditions: cation-adjusted MHB, ~5 × 10^5 CFU/ml, 37°C, 19 h + 1 h resazurin, OD600, at least three replicates for peptides, one for antibiotics
[12] = system: S. aureus ATCC 29213; conditions: cation-adjusted MHB, ~5 × 10^5 CFU/ml, 37°C, 19 h + 1 h resazurin, OD600, at least three replicates for peptides, one for antibiotics
[13] = system: S. aureus ATCC BAA1720 MRSA; conditions: cation-adjusted MHB, ~5 × 10^5 CFU/ml, 37°C, 19 h + 1 h resazurin, OD600, at least three replicates for peptides, one for antibiotics
[14] = system: B. subtilis 168; conditions: cation-adjusted MHB, ~5 × 10^5 CFU/ml, 37°C, 19 h + 1 h resazurin, OD600, at least three replicates for peptides, one for antibiotics

**Q.** What does the source list for GLLKRIKTLL-NH2 [anoplin]?
**A.** Hemolytic activity ([1]; 4 μM peptide): 0.5%; Hemolytic activity ([1]; 8 μM peptide): 1.3%; Hemolytic activity ([1]; 16 μM peptide): 0.7%; Hemolytic activity ([1]; 32 μM peptide): 4% and 0.6%; Hemolytic activity ([1]; 64 μM peptide): 2.3%; effect on cell viability compared to untreated control cells ([2]; HEK 293, 4-32 μM peptide, 24 and 48 h of treatment): no significant effect on cell viability; morphology of cells [3]: not altered; time of incubation with trypsin to complete decay of the peptide peak ([4]; 600 rpm, sampled at 2, 4, 6, 8 min): 4 to 6 min; MIC [5]: 32 µM; MIC [6]: 64 µM; MIC [7]: 64 µM; MIC [8]: 64 µM; MIC [9]: 16 µM; MIC [10]: 32 µM; MIC [11]: 64 µM; MIC [12]: ≥64 µM; MIC [13]: ≥64 µM; MIC [14]: 16 µM

**Q.** How did the Hemolytic activity ([1]; 4 μM peptide) turn out when `C=CCCC[C@](C)(NC(=O)[C@H](CCCCN)NC(=O)[C@H](CC(C)C)NC(=O)[C@H](CC(C)C)NC(=O)CN)C(=O)N[C@H](C(=O)N[C@@H](CCCCN)C(=O)N[C@H](C(=O)N[C@@](C)(CCCC=C)C(=O)N[C@@H](CC(C)C)C(N)=O)[C@@H](C)O)[C@@H](C)CC` [anoplinS5(5,9)] (H-GLLK[S5]IKT[S5]L-NH2) was run?
**A.** 6.7%

**Q.** What about the Hemolytic activity ([1]; 8 μM peptide) of the same compound?
**A.** 7.2%

**Q.** And the Hemolytic activity ([1]; 16 μM peptide)?
**A.** 8.9%

**Q.** And the Hemolytic activity ([1]; 32 μM peptide)?
**A.** 11.9%

**Q.** What about the Hemolytic activity ([1]; 64 μM peptide) of the same compound?
**A.** 14.2%

**Q.** And the morphology of cells [3]?
**A.** altered cell appearance and the presence of cellular debris

**Q.** What about the “stability against trypsin (comparison in words)” value [4] of the same compound?
**A.** significantly higher stability against trypsin

**Q.** And the “stability against trypsin (comparison in words)” value ([4]; listed as S5(5-9) peptide)?
**A.** highest enzymatic resistance

**Q.** What about the MIC [5] of the same compound?
**A.** 64 µM

**Q.** What about the MIC [6] of the same compound?
**A.** 32 µM

**Q.** And the MIC [7]?
**A.** 32 µM

**Q.** What about the MIC [8] of the same compound?
**A.** 64 µM

**Q.** What about the MIC [9] of the same compound?
**A.** 64 µM

**Q.** What about the MIC [10] of the same compound?
**A.** ≥64 µM

**Q.** And the MIC [11]?
**A.** ≥64 µM

**Q.** What about the MIC [12] of the same compound?
**A.** 8 µM

**Q.** And the MIC [13]?
**A.** 8 µM

**Q.** What about the MIC [14] of the same compound?
**A.** 8 µM

**Q.** Which results are given for `NC[C@H]1O[C@H](O[C@H]2[C@H](O)[C@@H](O[C@H]3O[C@H](CO)[C@@H](O)[C@H](N)[C@H]3O)[C@H](N)C[C@@H]2N)[C@H](O)[C@@H](O)[C@@H]1O` [kanamycin]?
**A.** MIC [5]: 8 µM; MIC [6]: 2 µM; MIC [7]: ≥64 µM; MIC [8]: ≥64 µM; MIC [9]: ≥64 µM; MIC [10]: ≥64 µM; MIC [11]: ≥64 µM; MIC [12]: 4 µM; MIC [13]: ≥64 µM; MIC [14]: 0.25 µM

**Q.** polymyxin B was tested. Which MIC [5] did it give?
**A.** 0.25 µM

**Q.** And the MIC [6]?
**A.** 0.5 µM

**Q.** What about the MIC [7] of the same compound?
**A.** 0.25 µM

**Q.** What about the MIC [8] of the same compound?
**A.** 0.5 µM

**Q.** What about the MIC [9] of the same compound?
**A.** 0.5 µM

**Q.** And the MIC [10]?
**A.** 0.25 µM

**Q.** And the MIC [11]?
**A.** 0.5 µM

**Q.** And the MIC [12]?
**A.** ≥64 µM

**Q.** What about the MIC [13] of the same compound?
**A.** ≥64 µM

**Q.** And the MIC [14]?
**A.** 2 µM

**Q.** Which results are given for `CC[C@H](C)[C@@H]1NC(=O)[C@@](C)(NC(=O)[C@H](CCCCN)NC(=O)[C@H](CC(C)C)NC(=O)[C@H](CC(C)C)NC(=O)CN)CCCC=CCCC[C@@](C)(C(=O)N[C@@H](CC(C)C)C(N)=O)NC(=O)[C@H]([C@@H](C)O)NC(=O)[C@H](CCCCN)NC1=O` [anoplin[5-9]] (H-GLLK[S5]IKT[S5]L-NH2; staple 5-9)?
**A.** Hemolytic activity ([1]; 4 μM peptide): 6.5%; Hemolytic activity ([1]; 8 μM peptide): 16.6%; Hemolytic activity ([1]; 16 μM peptide): 29.8%; Hemolytic activity ([1]; 32 μM peptide, listed as Anoplin[5-9]): 43.2%; Hemolytic activity ([1]; 32 μM peptide, listed as anoplin [5-9]): 43%; Hemolytic activity ([1]; 64 μM peptide): 62.7%; dead cells ([2]; HEK 293, 16 μM peptide): approximately 60%; effect on living cells ([2]; HEK 293, 32 μM peptide): nearly eliminated all living cells; morphology of cells [3]: altered cell appearance and the presence of cellular debris; stability against trypsin (comparison in words) [4]: significantly higher stability against trypsin; MIC [5]: 16 µM; MIC [6]: 8 µM; MIC [7]: 8 µM; MIC [8]: 16 µM; MIC [9]: 16 µM; MIC [10]: 32 µM; MIC [11]: 32 µM; MIC [12]: 4 µM; MIC [13]: 4 µM; MIC [14]: 4 µM
